# Results from article PMC4801399, “Impact of a CXCL12/CXCR4 Antagonist in Bleomycin (BLM) Induced Pulmonary Fibrosis and Carbon Tetrachloride (CCl4) Induced Hepatic Fibrosis in Mice” (PLoS ONE, 2016).
# Where two headings read alike, the source gives them in different places.
# How the values were obtained:
# [1] = AMD070 PK study via PO: plasma and lung concentration; type: in vivo, CD-1 mice
# Procedure: (§1) At each endpoint, mice were euthanized with CO2 and blood collected via cardiac puncture. An aliquot was set aside at room temperature for hematology measurements with remaining blood processed for plasma for drug concentration determination. Lungs were collected and immediately frozen on dry ice and stored at -70°C until determination of drug concentration. AMD070 concentrations in mouse plasma were determined using protein precipitation extraction followed by UPLC-MS/MS analysis. Briefly, 100 μL aliquots of plasma were transferred to individual wells of an Isolute PPT+ (Biotage) array plate containing 300 μL of 0.1% formic acid (FA) in acetonitrile (ACN). […] The sample residue was then reconstituted into 200 μL of 0.1/5/95 FA/ACN/H2O (v/v/v) and analyzed using reverse phase chromatography (gradient elution) combined with multiple reaction monitoring acquisition (MRM). The mobile phases consisted of 0.1% FA in H2O and 0.1% FA in ACN. AMD070 was extracted from lung and liver tissue by homogenization under basic conditions followed by liquid-liquid extraction in tert-butyl methyl ether (TBME) and ethyl acetate respectively. In summary, 50 mg of lung or liver tissue pieces were cut, weighed, and transferred to homogenization tubes. 25 μL of deionized water for lung and 10 μL for liver were added to each tube, followed by the addition of zirconium (Zr) homogenization beads. The samples were homogenized for approximately 20 seconds in the BeadBeater, followed by 1 minute of centrifugation at room temperature at 13,520 rcf. 200 μL of 1 N NaOH was then transferred to each tube, followed by a second homogenization/centrifugation cycle as described above. […] The dried residue was reconstituted into 0.1/5/95 TFA/ACN/H2O and analyzed using reverse phase chromatography (gradient elution) combined with MRM acquisition in positive electrospray mode (ES+). The mobile phases consisted of 0.1% TFA in H2O and 0.1% TFA in ACN.
# [2] = system: leukocyte mobilization (blood cell counts); assay: Hematology measurements after SC administration; type: in vivo, C57BL/6 mice; settings: SC 400 μg/mouse; data not shown
# Procedure: Non fasted C57BL/6 mice at 7 to 8 weeks of age from Harlan were sacrificed at 0.5, 1, 3, 24 and 48 hours (n = 3/time point) post administration of AMD070 (in 30 mM acetate buffer, pH 5) (400 μg/mouse). All preceding procedures were same as those for AMD070 PK studies via IP injections.
# [3] = AMD070 PK study via SC injection: plasma, lung and liver concentration; type: in vivo, C57BL/6 mice; settings: SC 400 μg/mouse; for Kp: C57BL/6, read-out: Tissue AUC/Plasma AUC
# Procedure: as §1, with “All preceding procedures” for “At each endpoint, mice”, “same as those for AMD070 PK studies” for “euthanized with CO2 and blood collected”, “IP injections.” for “cardiac puncture. An aliquot was set aside at room temperature for hematology measurements with remaining blood processed for plasma for drug concentration determination. Lungs were collected and immediately frozen on dry ice and stored at -70°C until determination of drug concentration.”
# CXCR4 = system: CXCR4; parameters: method as in PMID 20297846; settings: cited from earlier work
smiles,measurement,setting,value
NCCCCN(Cc1nc2ccccc2[nH]1)[C@H]1CCCc2cccnc21 [AMD070],drug levels in the lungs,[1]; PO 200 μg/animal,detectable but not quantifiable
same,lung Cmax,[1]; PO 400 μg/animal,267 ng/g
same,time of lung Cmax after PO,[1]; PO 400 μg/animal,6 h
same,plasma concentrations of drug,"[1]; PO 200 or 400 μg/animal, data not shown",very low
same,time lung concentration above IC50 and EC90,"[1]; of the 24 hours after dosing, PO 400 μg/animal, WinNonlin analysis",at least 21 hours
same,blood cell count changes compared with IP,[2],magnitude of these changes were lower
same,Cmax,"[3]; C57BL/6, 400 ug, Liver",5760 ng/g
same,Tmax,"[3]; C57BL/6, 400 ug, Liver",30 min
same,Cmax,"[3]; C57BL/6, 400 ug, Lung",5650 ng/g
same,Tmax,"[3]; C57BL/6, 400 ug, Lung",60 min
same,Cmax,"[3]; C57BL/6, 400 ug, Plasma",700 ng/mL
same,Tmax,"[3]; C57BL/6, 400 ug, Plasma",30 min
same,AUC,"[3]; C57BL/6, 400 ug, Plasma, read-out: AUC (all time points)",970 ng·h/mL
same,Kp,[3]; Liver,79.7
same,Kp,[3]; Lung,83.3
same,protein binding adjusted effective concentration (EC90),CXCR4; 90% effectiveness,0.044 µg/mL
same,IC50,CXCR4,0.013 µM
